Where two headings read alike, the source gives them in different places.
Legend:
[1] = target: T1, hT1R1/hT1R3 umami receptor expressed in an HEK293 cell line (Homo sapiens, UniProt Q7RTX0+Q7RTX1); assay: In vitro hT1R1/hT1R3 umami taste receptor activation assay (FLIPR, dose response); format: cell-based
T1 construct: expressed in transfected cells; host or cells: HEK293 derivative, clone I-17, expression induced with mifepristone
T1 sequence (Q7RTX1 21-841): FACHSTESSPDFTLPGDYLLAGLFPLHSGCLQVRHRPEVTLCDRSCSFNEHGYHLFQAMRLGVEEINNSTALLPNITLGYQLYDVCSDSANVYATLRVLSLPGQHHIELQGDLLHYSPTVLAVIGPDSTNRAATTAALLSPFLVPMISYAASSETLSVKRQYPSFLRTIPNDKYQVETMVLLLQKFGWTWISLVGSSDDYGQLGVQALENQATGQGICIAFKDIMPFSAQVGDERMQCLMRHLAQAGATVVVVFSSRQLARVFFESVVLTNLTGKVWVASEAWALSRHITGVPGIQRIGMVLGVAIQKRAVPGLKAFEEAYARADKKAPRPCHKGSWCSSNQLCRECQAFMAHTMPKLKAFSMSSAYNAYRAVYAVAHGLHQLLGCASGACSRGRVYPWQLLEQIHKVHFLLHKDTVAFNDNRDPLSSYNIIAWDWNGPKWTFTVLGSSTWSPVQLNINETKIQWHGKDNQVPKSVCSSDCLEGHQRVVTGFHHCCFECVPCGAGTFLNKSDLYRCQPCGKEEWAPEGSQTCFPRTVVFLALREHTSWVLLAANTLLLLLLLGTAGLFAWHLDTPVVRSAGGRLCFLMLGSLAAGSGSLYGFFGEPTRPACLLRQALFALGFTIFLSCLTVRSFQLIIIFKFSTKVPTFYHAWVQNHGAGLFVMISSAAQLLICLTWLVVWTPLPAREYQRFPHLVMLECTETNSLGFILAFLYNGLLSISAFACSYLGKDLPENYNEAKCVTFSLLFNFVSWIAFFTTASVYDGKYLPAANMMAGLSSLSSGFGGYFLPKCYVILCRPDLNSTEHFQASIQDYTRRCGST
T1 sequence (Q7RTX0 21-852): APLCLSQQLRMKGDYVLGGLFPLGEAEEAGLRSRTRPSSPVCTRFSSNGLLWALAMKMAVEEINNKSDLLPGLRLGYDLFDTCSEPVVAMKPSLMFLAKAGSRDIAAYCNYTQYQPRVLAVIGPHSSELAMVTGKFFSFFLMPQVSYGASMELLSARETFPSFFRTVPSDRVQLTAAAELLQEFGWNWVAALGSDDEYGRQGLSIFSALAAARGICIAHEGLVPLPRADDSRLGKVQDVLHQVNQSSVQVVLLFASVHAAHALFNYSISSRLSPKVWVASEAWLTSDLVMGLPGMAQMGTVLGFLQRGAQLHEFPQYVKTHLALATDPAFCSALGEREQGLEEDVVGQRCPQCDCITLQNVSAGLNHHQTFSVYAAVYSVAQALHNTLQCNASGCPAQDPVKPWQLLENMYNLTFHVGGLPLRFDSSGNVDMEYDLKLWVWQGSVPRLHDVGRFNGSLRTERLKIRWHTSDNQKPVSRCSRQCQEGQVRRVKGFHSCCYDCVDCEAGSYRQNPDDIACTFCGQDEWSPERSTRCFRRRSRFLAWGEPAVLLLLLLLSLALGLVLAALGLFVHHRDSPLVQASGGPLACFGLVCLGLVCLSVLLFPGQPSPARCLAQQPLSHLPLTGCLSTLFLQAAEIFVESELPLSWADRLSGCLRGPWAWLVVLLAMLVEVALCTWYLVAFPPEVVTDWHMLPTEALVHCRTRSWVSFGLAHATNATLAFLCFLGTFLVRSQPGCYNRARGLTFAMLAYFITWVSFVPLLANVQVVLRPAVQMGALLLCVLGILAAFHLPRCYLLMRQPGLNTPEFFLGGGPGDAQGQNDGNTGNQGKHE
Description: In order to identify new savory flavoring agents and enhancers, including compounds with savory agonist and enhancer activities (dual activity), the tastant compounds of Formula (I) were screened in primary assays and secondary assays including compound dose response and enhancement assay. In a primary assay for potential ability to modulate umami taste, tastant compounds of Formula (I) that can be either savory flavoring agents in their own right or flavor enhancers of MSG are identified and scores of their activities are given as percentage of the maximum MSG intensity (%). In compound dose response, an EC50 is calculated to reflect the potency of the compound as a savory agonist or enhancer.
An HEK293 cell line derivative (see e.g., Chandrashekar, et al., Cell (2000) 100: 703-711) which stably expresses Gα15 and hT1R1/hT1R3 under an inducible promoter (see WO 03/001876 A2) was used to identify compounds with savory tasting properties.
Compounds disclosed in this application were initially selected based on their activity on the hT1R1/hT1R3-HEK293-Gα15 cell line. Activity was determined using an automated fluorometric imaging assay on a FLIPR instrument (Fluorometric Intensity Plate Reader, Molecular Devices, Sunnyvale, Calif.) (designated FLIPR assay). Cells from one clone (designated clone I-17) were seeded into 384-well plates (at approximately 48,000 cells per well) in a medium containing Dulbecco's modified Eagle's medium (DMEM) supplemented with GlutaMAX (Invitrogen, Carlsbad, Calif.), 10% dialyzed fetal bovine serum (Invitrogen, Carlsbad, Calif.), 100 Units/ml Penicillin G, 100 μg/ml Streptomycin (Invitrogen, Carlsbad, Calif.) and 60 pM mifepristone (to induce expression of hT1R1/hT1R3, (see WO 03/001876 A2). I-17 cells were grown for 48 hours at 37° C. I-17 cells were then loaded with the calcium dye Fluo-3AM (Molecular Probes, Eugene, Oreg.), 4 μM in a phosphate buffered saline (D-PBS) (Invitrogen, Carlsbad, Calif.), for 1.5 hours at room temperature. After replacement with 25 μl D-PBS, stimulation was performed in the FLIPR instrument and at room temperature by the addition of 25 μl D-PBS supplemented with different stimuli at concentrations corresponding to twice the desired final level. Receptor activity was quantified by determining the maximal fluorescence increases (using a 480 nm excitation and 535 nm emission) after normalization to basal fluorescence intensity measured before stimulation.
(§1) For dose-responses analysis, stimuli were presented in duplicates at 10 different concentrations ranging from 1.5 nM to 30 μM. Activities were normalized to the response obtained with 60 mM monosodium glutamate, a concentration that elicits maximum receptor response. EC50s (concentration of compound that causes 50% activation of receptor) were determined using a non-linear regression algorithm, where the Hill slope, bottom asymptotes and top asymptotes were allow to vary. Identical results were obtained when analyzing the dose-response data using commercially available software for non-linear regression analysis such as GraphPad PRISM (San Diego, Calif.).

[2] = target: T2, hT1R2/hT1R3 sweet receptor expressed in an HEK293 cell line (Homo sapiens, UniProt Q7RTX0+Q8TE23); assay: In vitro hT1R2/hT1R3 sweet taste receptor activation assay (FLIPR, dose response); format: cell-based
T2 construct: expressed in transfected cells; host or cells: HEK293 derivative, clone S-9
T2 sequence (Q8TE23 20-839): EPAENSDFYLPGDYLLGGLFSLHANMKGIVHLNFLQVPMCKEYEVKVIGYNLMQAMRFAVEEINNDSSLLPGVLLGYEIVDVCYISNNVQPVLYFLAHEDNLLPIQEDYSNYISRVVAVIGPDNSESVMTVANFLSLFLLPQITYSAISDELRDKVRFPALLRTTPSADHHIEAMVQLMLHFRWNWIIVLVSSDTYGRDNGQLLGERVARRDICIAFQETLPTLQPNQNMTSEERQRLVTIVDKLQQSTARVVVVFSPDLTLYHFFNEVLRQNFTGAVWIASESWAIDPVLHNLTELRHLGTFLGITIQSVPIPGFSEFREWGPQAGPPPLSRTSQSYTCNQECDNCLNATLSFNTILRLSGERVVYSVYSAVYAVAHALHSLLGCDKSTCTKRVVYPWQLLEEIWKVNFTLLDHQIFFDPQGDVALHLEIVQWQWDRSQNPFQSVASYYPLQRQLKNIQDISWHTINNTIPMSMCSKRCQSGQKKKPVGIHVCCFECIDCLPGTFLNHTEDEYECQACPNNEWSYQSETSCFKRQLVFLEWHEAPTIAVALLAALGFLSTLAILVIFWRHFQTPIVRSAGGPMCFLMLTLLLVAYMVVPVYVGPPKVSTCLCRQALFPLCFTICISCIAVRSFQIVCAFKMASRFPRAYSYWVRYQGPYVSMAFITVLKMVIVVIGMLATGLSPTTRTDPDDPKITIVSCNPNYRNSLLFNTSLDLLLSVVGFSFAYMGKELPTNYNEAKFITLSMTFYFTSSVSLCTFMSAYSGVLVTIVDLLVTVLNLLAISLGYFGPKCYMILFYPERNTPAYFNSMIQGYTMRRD
T2 sequence (Q7RTX0 21-852): T1 sequence (Q7RTX0 21-852)
Description: An HEK293 cell line derivative (see Chandrashekar, J., Mueller, K. L., Hoon, M. A., Adler, E., Feng, L., Guo, W., Zuker, C. S., Ryba, N. J.,. Cel,l 2000, 100, 703-711.) that stably expresses Gα15 and hT1R2/hT1R3 (see Li, X., Staszewski, L., Xu, H., Durick, K., Zoller, M., Adler, E. Proc Natl Acad Sci USA 2002, 99, 4692-4696, and PCT Publication No. WO 03/001876) was used to identify compounds with sweet taste enhancing properties. These references are hereby incorporated herein by reference for their methods of preparing and maintaing the cell lines discussed below, and for their methods for screeing compounds that inhibit the biological receptors.
Compounds covered in this document were initially selected based on their activity on the hT1R2/hT1R3—HEK293-Gα15 cell line (Li, et al. vide supra). Activity was determined using an automated fluorometric imaging assay on a FLIPR instrument (Fluorometric Intensity Plate Reader, Molecular Devices, Sunnyvale, Calif.) (designated FLIPR assay). Cells from one clone (designated S-9 cells) were seeded into 384-well plates (at approximately 50,000 cells per well) in a medium containing DMEM Low Glucose (Invitrogen, Carlsbad, Calif.), 10% dialyzed fetal bovine serum (Invitrogen, Carlsbad, Calif.), 100 Units/ml Penicillin G, and 100 μg/ml Streptomycin (Invitrogen, Carlsbad, Calif.) (Li, et al. vide supra) see also World Patent No. WO 03/001876 A2). S-9 cells were grown for 24 hours at 37° C. S-9 cells were then loaded with the calcium dye Fluo-3AM (Molecular Probes, Eugene, Oreg.), 4 μM in a phosphate buffered saline (D-PBS) (Invitrogen, Carlsbad, Calif.), for 1 hour at room temperature. After replacement with 25 μl D-PBS, stimulation was performed in the FLIPR instrument and at room temperature by the addition of 25 μl D-PBS supplemented with different stimuli at concentrations corresponding to twice the desired final level. Receptor activity was quantified by determining the maximal fluorescence increases (using a 480 nm excitation and 535 nm emission) after normalization to basal fluorescence intensity measured before stimulation.
as §1, with “60” for “1.5”, “400” for “60”, “D-fructose,” for “monosodium glutamate,”, “EC50s” for “EC50s (concentration of compound that causes 50% activation of receptor)”, “algorithm (using a Senomyx, Inc. software),” for “algorithm,”

[3] = read-out: EC50 for activation of a hT1R2/hT1R3 sweet receptor

| EC50 ([1]; read-out: Umami EC50) | EC50 ([2]; read-out: Sweet EC50) | Structure (SMILES) | other results |
| --- | --- | --- | --- |
| – | 4160 nM | CCOc1ccc(NC(=S)NCc2sccc2C)cc1 [Example B31] | – |
| – | 260 nM | COc1cc(OC)c(CNC(=S)Nc2ccc(OC(C)C)cc2)c(OC)c1 [Example B1] | – |
| – | 1290 nM | CCn1cccc1CNC(=S)Nc1ccc(OC(C)C)cc1 [Example B13] | – |
| – | 1510 nM | CCCOc1ccc(NC(=S)NCc2ccco2)cc1 [Example B5] | – |
| – | 180 nM | C=COc1ccc(NC(=S)NCc2ccc[nH]2)cc1 [Example B15] | – |
| – | 8500 nM | OCCSc1ccc(NC(=S)NCc2ccc[nH]2)cc1 [Example B39] | – |
| – | 2590 nM | CC(C)Oc1ccc(NC(=S)NCc2cccn2C)cc1 [Example B2] | – |
| – | 930 nM | CCOc1ccc(S(=O)(=O)NCc2ccncc2)cc1 [Example B44] | – |

The remaining lines, values behind:

| Structure (SMILES) | EC50 ([1]; read-out: Umami EC50) | EC50 ([2]; read-out: Sweet EC50) | other results |
| --- | --- | --- | --- |
| O=C(OCc1ccccn1)c1ccc(COc2cccc3ccccc23)cc1 [Example A22] | 3870 nM | – | – |
| CC(C)c1ccc(NC(=S)NCCc2ccccn2)cc1 [Example A2] | 1430 nM | – | – |
| CC1CCCCC1NC(=S)Nc1ccc2c(c1)OCO2 (stereo not drawn) [Example A19] | 13400 nM | – | – |
| CSc1ccccc1NC(=S)NC1CCCCC1C (stereo not drawn) [Example A15] | 3000 nM | – | – |
| CC(C)(C)c1ccc(NC(=S)NCCc2ccccn2)cc1 [Example A3] | 1920 nM | – | – |
| CCCCC(C)NC(=S)NC1CCCc2ccccc21 (stereo not drawn) [Example A18] | 7880 nM | – | – |
| CC(C)Oc1ccc(NC(=S)NCc2ncc[nH]2)cc1 [Example A21] | 14500 nM | – | – |
| CSc1ccc(NC(=S)NCCc2ccccn2)cc1 [Example A5] | 3260 nM | – | – |
| Cc1cc(CNC(=S)Nc2ccc(OC(C)C)cc2)no1 [Example A20] | 11000 nM | – | – |
| CCc1ccc(NC(=S)NCCc2ccccn2)cc1 [Example A4] | 1370 nM | – | – |
| CCOc1ccc(NC(=S)NCCc2ccccn2)cc1 [Example 2] | – | – | EC50 ([1]; read-out: EC50 for activation of a hT1R1/hT1R3 umami receptor expressed in an HEK293 cell line): 550 nM |
| CCOC(=O)COc1ccc(S(=O)(=O)Nc2ccc3c(c2)OCO3)cc1 [Example A14] | 14400 nM | – | – |
| S=C(NCCc1ccccn1)Nc1ccccc1OCc1ccccc1 [Example A1] | 1310 nM | – | – |
| CC(C)Oc1ccc(NC(=S)NCc2ccccc2)cc1 [Example 11] | – | – | EC50 [2, 3]: 1000 nM |
| COc1ccc(CNc2ccccc2F)cc1O [Example 16, 5-((2-fluorophenylamino)methyl)-2-methoxyphenol] | – | – | EC50 [2, 3]: 2410 nM |
| COc1ccc(C(=O)CC(SCO)c2ccc(Cl)cc2)cc1 (stereo not drawn) [Example A10] | 6050 nM | – | – |

Reference: US20060257543A1, “Molecules comprising linked organic moieties as flavor modifiers for comestible compositions” (priority 2005, published 2006)
